Assay results published in patent US11530216B2, “Deuterated colony stimulating factor-1 receptor (CSF-1R) inhibitors” (Genzyme Corporation, priority 2020, dated 2022).
Where two headings read alike, the source gives them in different places.

What was measured:
Type in all cases: in vitro ADME
[1] = Mouse hepatocyte intrinsic clearance; conditions: 1 μM, 0.5 million cells/mL
Description: (§1) Incubations were performed in 0.5 million hepatocytes cells/mL at 1 μM concentration of test compound in duplicate with rat, human, dog, monkey, or mouse hepatocytes, and the concentration-time course of test compound depletion was determined after withdrawing samples from the incubation at assay time points followed by liquid chromatography with tandem mass spectrometry analysis. An organic solvent was used to terminate incubations.

[2] = Metabolite profiles in human cryopreserved hepatocytes in absence and presence of AO inhibitor hydralazine; conditions: 2 hours; for % of Total (integrated MS peak areas), Human Hepatocytes: absence of hydralazine; for % of Total (integrated MS peak areas), Human Hepatocytes + Hydralazine: hydralazine 10 μM
Description: After study sampling, the remaining samples from triplicate incubations were combined and processed for the metabolite identification study.
(§2) To each sample was added equal amounts of ice-cold acetonitrile (v/v) and the samples were then vortex mixed. Following centrifugation at approximately 13,000 rpm for 10 minutes, the supernatants were concentrated under nitrogen flow at 35° C. until approximately 0.1-0.2 mL of extract remained. Prior to analysis, the remaining extract was centrifuged at approximately 13,000 rpm for 15 minutes. The supernatant was injected into LC/UV/MS for analysis.
Metabolite identification was performed on UPLC (Thermo Vanquish) coupled with UV (Thermo Vanquish) and mass spectrometry (MS) detection (Thermo Orbitrap ID-X).
The mass peak areas were used for metabolite profiling, due to low sample concentrations. […] Metabolites having a peak area that accounts for equal to or more than 0.1% of the toral integrated MS peaks areas are reported in Table 1 below.
The metabolites are characterized based on their accurate masses (tolerance ≤5 ppm), mass fragmentation patterns, and comparison with other in vitro studies.
After study sampling, the remaining samples from triplicate incubations were combined and processed for metabolite identification study.
as §2, with “were” for “were then”, “was” for “were”
The mass peak areas are used for metabolite profiling, due to low sample concentrations. […] Metabolites having a peak area that accounts for equal to or more than 0.1% of the toral integrated MS peaks areas are reported in Table 2 below.
The metabolites are characterized based on their accurate masses (tolerance≤5 ppm), mass fragmentation patterns, and comparison with other in vitro studies.

[3] = Human liver cytosol intrinsic clearance; conditions: human, cytosol
Description: as §1, with “1 mg/mL human liver cytosol with high aldehyde oxidase (AO)/xanthine oxidase (XO) activity or 2.5 mg/mL human liver S-9 fraction with high AO/XO activity” for “0.5 million hepatocytes cells/mL”, “duplicate,” for “duplicate with rat, human, dog, monkey, or mouse hepatocytes,”
These available known AO substrates along with the test compounds were analyzed using three in vitro systems (pooled human liver cytosol, liver S-9 fractions and human hepatocytes isolated from livers perfused with HTK media). Scaled unbound intrinsic clearances were calculated for the test compounds/new chemical entities and were compared to the in vivo unbound intrinsic clearances of the known AO substrates.

[4] = target: CYP2D6 (Homo sapiens (Human), UniProt P10635); experiment: CYP inhibition in human liver microsomes, CYP2D6; conditions: dextromethorphan 10 μM, 30 min, read-out: CYP inhibition mean IC50 (INH) isoform: CYP2D6 Substrate: dextromethorphan
Description: The objective of this assay method was to determine the inhibitory potential of test articles, in vitro, against specific cytochrome P450 (CYP) enzymes, using human liver microsomes (HLMs). The test compounds were diluted from pure DMSO stocks to a final test concentration range of 10 μM-0.07 μM in a 0.5% DMSO solution. […] After incubation, the samples were extracted, and protein precipitated in acetonitrile containing 0.1% formic acid. The samples were centrifuged to remove excess protein, and were analyzed by LDTD/MS/MS to determine IC50 values. Key concentrations of substrates were as follows: CYP2D6 Substrate—Dextromethorphan at 10 μM. CYP3A4 Substrates—Testosterone at 60 μM, and Midazolam at 2 μM. Dextromethorphan and testosterone were incubated with the test compounds for 30 minutes each. Midazolam was incubated with the test compounds for 10 minutes.

[5] = Caco-2 efflux assay; conditions: human
Description: Caco-2 permeability and efflux assays were performed in cell-based permeability model using Caco-2/TC7 cells. For permeability assays, Caco-2/TC7 cells were seeded on to Millipore Millicell 96 and for efflux assays, 24-well plates were used. The plates with cells were ready to use between 21-25 days of culturing. Both permeability and efflux assays were performed using the TECAN automated liquid handling platform. For permeability assays, test compounds were prepared at 20 μM test concentrations in permeability assay buffer (10 mM HEPES in HBSS buffer, pH 6.5) containing 0.5% BSA. Basolateral permeability buffer (pH 7.4) contains 5% BSA. For efflux assays, test compounds were prepared at 1 μM test concentrations in permeability assay buffer (10 mM HEPES in HBSS buffer, pH 7.4) containing 0.5% BSA. For efflux assays, the basolateral permeability buffer (pH 7.4) contained 0.5% BSA. The permeability assay was initiated by adding 20 μM test solution to apical side of plate containing Caco-2/TC7 cells. In the efflux assay, 1 μM test compound was added to an apical compartment for apical to basolateral (A to B) permeability determination. For basolateral to apical (B to A) permeability determination, the test compound was added to the basolateral side. The plate was incubated for 90 min under constant shaking at 37° C. At the end of the incubation period, samples taken were analyzed using high pressure liquid chromatography with tandem mass spectrometry. For each assay, apparent permeability (Papp) and recovery was calculated from mass spectrometry data. For permeability assay, Papp values are reported as numbers×10^−07 cm/s. For efflux assays, the efflux ratio is calculated using Papp (basolateral to apical) to Papp (apical to basolateral), in addition to recovery values.

[6] = Human Liver Cytosol Intrinsic Clearance _1
[7] = Human Liver Cytosol Intrinsic Clearance _2
[8] = incubation of Compound 24, 1 μM

CYP2D6, sequence (P10635 whole entry, canonical isoform): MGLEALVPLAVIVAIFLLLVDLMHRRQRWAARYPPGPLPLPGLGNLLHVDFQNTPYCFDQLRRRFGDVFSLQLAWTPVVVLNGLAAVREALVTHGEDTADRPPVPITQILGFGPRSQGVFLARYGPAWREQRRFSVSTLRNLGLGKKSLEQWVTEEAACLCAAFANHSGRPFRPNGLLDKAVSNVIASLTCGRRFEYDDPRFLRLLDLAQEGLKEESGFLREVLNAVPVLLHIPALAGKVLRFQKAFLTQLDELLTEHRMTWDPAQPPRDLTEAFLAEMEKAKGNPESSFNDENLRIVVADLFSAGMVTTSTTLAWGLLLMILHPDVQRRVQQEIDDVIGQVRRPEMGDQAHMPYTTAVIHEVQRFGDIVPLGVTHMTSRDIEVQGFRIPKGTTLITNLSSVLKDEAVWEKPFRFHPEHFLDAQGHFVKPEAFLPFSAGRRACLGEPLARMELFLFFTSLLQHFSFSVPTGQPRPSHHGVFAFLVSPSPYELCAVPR

SMILES | Mouse Hepatocyte Intrinsic Clearance [1] | % of Total (integrated MS peak areas), Human Hepatocytes ([2]; incubation of Compound 6, 1 μM) | % of Total (integrated MS peak areas), Human Hepatocytes + Hydralazine ([2]; incubation of Compound 6, 1 μM) | CLint scaled at 1 μM [3] | microsomal CLint at 1 μM [3, 6] | microsomal CLint at 1 μM [3, 7] | IC50 [4] | Papp A→B at 90 min, 1 μM [5] | Papp B→A at 90 min, 1 μM [5] | recovery at 90 min, 1 μM ([5]; read-out: Recovery A to B) | recovery at 90 min, 1 μM ([5]; read-out: Recovery B to A) | % of Total (integrated MS peak areas), Human Hepatocytes [2, 8] | % of Total (integrated MS peak areas), Human Hepatocytes + Hydralazine [2, 8]
[2H]c1nc2cccnc2n1Cc1cc(OC)c2c(c1)O[C@@H](C)[C@H](c1ccc(OC)nc1)O2 [Compound 6, 3-(((2S,3S)-8-methoxy-2-(6-methoxypyridin-3-yl)-3-methyl-2,3-dihydrobenzo[b][1,4]dioxin-6-yl)methyl)-3H-imidazo[4,5-b]pyridine-2-d] | 6.63 μL/min/10^7 cells | 87.1% | 92.0% | 3.9 mL/min/kg | 1.5 µL/min/mg | 2.2 µL/min/mg | > 10 µM | 13.5 ×10⁻⁶ cm/s | 29.2 ×10⁻⁶ cm/s | 88% | 82.5% |  | 
COc1ccc(C2Oc3c(OC)cc(Cn4cnc5cccnc54)cc3O[C@H]2C)cn1 (stereo partly shown) [Compound 24] | 9.36 μL/min/10^7 cells |  |  | 10.5 mL/min/kg | 5.1 µL/min/mg | 5 µL/min/mg | > 10 µM | 12.5 ×10⁻⁶ cm/s | 25.6 ×10⁻⁶ cm/s | 93% | 94% | 72.2% | 90.9%
